Earlier results, collected in patent publication US20110195912A1, “Oligomer-Protease Inhibitor Conjugates” (Nektar Therapeutics, priority 2008, published 2011).
Where two headings read alike, the source gives them in different places.

Legend:
[1] = system: HCV genotype 1; settings: 100-400 mg twice daily; patients with HCV genotype 1 that had failed pegIFN-α 2a therapy
[2] = system: HCV genotype 1; settings: 200 or 400 mg thrice daily, 14 days; non-responder patients with HCV genotype 1
[3] = monkey; twice daily oral dosing for seven days
[4] = rat; twice daily oral dosing for seven days
[5] = system: HCV; settings: monotherapy, twice daily doses for 14 days

Compound | antiviral activity as a monotherapy [1] | efficacy in combination with pegIFN-α2a [2] | liver trough concentrations following the last dose [3] | liver trough concentrations following the last dose [4] | viral RNA levels [5]
CC(C)(C)NC(=O)N[C@H](C(=O)N1CC2[C@@H]([C@H]1C(=O)NC(CC1CCC1)C(=O)C(N)=O)C2(C)C)C(C)(C)C (some centres unmarked) [Boceprevir] | demonstrated antiviral activity | efficacious |  |  | 
CC(C)(C)OC(=O)N[C@H]1CCCCC/C=C\[C@@H]2C[C@@]2(C(=O)NS(=O)(=O)C2CC2)NC(=O)[C@@H]2C[C@@H](OC(=O)N3Cc4cccc(F)c4C3)CN2C1=O [ITMN-191] |  |  | in excess of in vitro EC90 values | in excess of in vitro EC90 values | rapid reduction in viral RNA levels
